Experimental findings from patent US20190225643A1, “NOVEL NUCLEOSIDE ANALOGS AND USE THEREOF IN THERAPEUTIC TREATMENT” (CORNELL UNIVERSITY, priority 2016, published 2019) are described below.

For data set [1], the system named is MM cell lines JJN3, MM1S, U266 and CAG. Nature of the data set: CellTiter-Glo viability assay, MM cell lines. The data set is classed as cell-based. The method, then:
(§1) Cell viability assays were performed by plating log-phase cells in RPMI complete media with 20% FBS at 1*10^5 cells/mL, with concentrations of 6-ETI or phospho-6-ETI ranging from 0.1 nM to 100 μM. ATP content at 24, 48 and 72 hours post-treatment was measured by the CellTiter-Glo kit (Promega, Madison, Wis.), or by Trypan blue assay as indicated. The LC50 for 6-ETI in each cell line was determined using online EC50 software at changbioscience.com or using GraphPad Prism to determine the LC50 for 6-ETI, phospho-6-ETI and nucleoside analogs in MM cell lines and primary MM patient samples.
(Cellular ATP, detected with luciferase, serves as a proxy for viable cell number.)

Data set [2] deals with BC3 cells. Nature of the data set: Annexin V/7-AAD cell death flow cytometry. The class given is cell-based, human. To be noted: 500 nM or 5 μM, 48 hours; versus IBL1. The method, then: BC3 and IBL1 cells in the exponential phase were seeded at a cell density of 0.2 million cells/ml. Cells were treated with 0.1% DMSO or with 6-ETI at a final concentration of 500 nM or 5 μM for 24, 48 or 72 hrs. Post-treatment, cells were harvested and stained with 2.54 of Alexa Fluor 647 Annexin V conjugate (Life technologies) and 2.5 fit of 7-AAD (BD biosciences) and incubated for 15 minutes in the dark at room temperature. Subsequently, 2004 of Annexin V binding buffer (BD Biosciences) was added to the cell suspension and cells analyzed by flow cytometry using BD biosciences LSRII machine.
For orientation: In flow cytometry, cells or beads pass a laser one at a time.

For another data set, the system named is KSHV- cell lines. Nature of the data set: CellTiter-Glo viability assay, KSHV- cell line panel. The class given is cell-based. To be noted: Homo sapiens, 48 h, read-out: LC50. The method, then:
as §1
KSHV+ primary effusion lymphoma (PEL) cell lines (BC1, BC2, BC3, BC5, BCBL1, BCP1), EBV+ lymphoblastoid cell line LCL9001, EBI+ diffuse large B-cell lymphomas (DLBCL) with immunoblastic features (IBL1, IBL4), and EBV+ effusion DLBCL BCKN1 were cultured in RPMI-1640 medium (Invitrogen) supplemented with 50 μg/mL Gentamicin (Sigma-Aldrich) and 10% or 20% heat-inactivated fetal bovine serum, respectively. Uninfected DLBCL cell lines (Ly2, Ly7) were cultured in IMDM (Invitrogen) supplemented with 50 μg/mL Gentamicin and 10% FBS. Multiple myeloma (MM) cell lines U266 and MM1S were cultured in RPMI supplemented with 15%FBS and 50 μg/mL Gentamicin, while JJN3 was cultured in 40% IMDM/40% DMEM plus 20% FBS supplemented with 50 μg/mL Gentamicin. […]

Data set [3] concerns NF-κB activity in BC3NFRen-luc#3 cells. Nature of the data set: NF-κB luciferase reporter assay. The class given is cell-based, human. To be noted: as early as 6 hours post-treatment. An excerpt: Exponentially growing BC3-derived reporter cell lines (BC3NFκB-luc#6 or BC3NFRen-luc#3), and unrelated luciferase expressing U251-pGL3 cells were resuspended in respective RPMI-1640 complete media, and plated in a 96-well tissue culture microplate at 7.5*10^5 cells/mL and 3*10^5 cells/mL, respectively, in the presence or absence of varying concentrations of test compounds. […]
(Reporter assays use an easily measured gene product as a stand-in for the process of interest.)

Data set [4] deals with normal plasma cells (CD19-, CD138+) from human tonsils. Nature of the data set: Toxicity on normal primary tonsillar lymphocytes. To be noted: 1 μM and 10 μM, 24 hours. The data set is classed as cell-based. The method, then:
Primary human tonsil specimens were obtained from the Weill Cornell/New York Presbyterian Institutional Biobank. Lymphocytes were isolated from human tonsil tissue by dissection and maceration in RPMI media. Lymphocyte-containing media was passed through a 70 μm filter and pelleted at 400 g for 7 minutes. RBC were lysed for 5 minutes in RBC lysing solution (0.15M ammonium chloride, 10 mM potassium bicarbonate, […]). After dilution to 50 ml with RPMI, lymphocytes were filtered through a […] filter, counted and pelleted a second time. Total B cells were isolated using magnetic cell sorting according to manufacturer instructions (Miltenyi Cat#130-091-151). Cells were plated at 2 million cells/ml in RPMI with 20% FBS and 100 μg/ml Primocin (Invivogen) and laid over gamma-irradiated CDW32 feeder cells. Cells were then treated with DMSO, 1 μM or 10 μM 6-ETI for 24 hrs. […] Data was acquired on a BD LSR2 Flow Cytometer and analyzed using FlowJo software. The frequency of plasma cells was assessed based on singlet-gated cells expressing CD138.

Data set [5] deals with BC3 cells. Kind of data set: Trypan-blue exclusion viability, PEL cell line. The data set is classed as cell-based. To be noted: Homo sapiens, BC-3; selected PEL cell line (BC3), 48 hours; read-out: LC50 by Trypan-blue exclusion. The method, then: as §1

The structures appear in SMILES notation.

`CCSc1ncnc2c1ncn2[C@@H]1O[C@H](CO)C(O)[C@@H]1O` (stereo partly drawn) [Compound 6-ETI, 6-ethylthioinosine]: the LC50 entry in data set [1] is listed as “high nM range”. The “proportion of dead cells (Annexin V/7-AAD)” value in the data set on BC3 cells [2] is reported as “higher proportion of dead cells”. For the same compound, the CC50 was 10 to 80 µM in the data set on KSHV- cell lines and 0.074 µM in the data set on BC3 cells [5]. Further, the NF-κB reporter activity result in data set [3] is “inhibited NF-κB activity”. Besides, the “total number or proportion of normal plasma cells” value in data set [4] is “did not find a decrease in the total number or proportion of plasma cells”.
